Assay results taken from patent US12180159B2, “Activators of the unfolded protein response” (The Board of Trustees of the University of Illinois, priority 2018, dated 2024).
“And” between values parts separate entries of the source, which are not always exact repeats. Identical values can stand only once.

Experiments:
[1] = test system: MCF-7 ERα Y537S-luciferase cells; test: Long-term cell culture experiment, MCF-7Y537S cells; assay type: cell-based, human; details: conditions as FIG. 15
TYS-Luc cells = test: Long-term cell culture experiment, TYS-Luc cells (MTS); assay type: cell-based, human; details: 2 weeks 1 μM, then 4 weeks without drug
Protocol: To simulate the effect of several weeks of treatment of a tumor in a mouse xenograft, long-term cell culture experiments were performed. TYS-Luc cells (T47DERαY537S-Luc cells; ERαY537S is the most lethal ERα mutation seen in metastatic breast cancer) were plated at 4,000 cells/well in 96 well plates. […] After 2 weeks (medium change every 2 days) cell number was determined using MTS and a standard curve of absorbance versus cell number for TYS-Luc cells. Notes: (i) Bars denote the BHPI and (−)-105 arms of the experiment. No drug is present during regrow. […] This allows any surviving cells to regrow. After 4 weeks the cells were assayed using MTS. […] (Note: Visual inspection of the wells confirmed that there were no cells in the well treated for 2 weeks with active (−)-105.) To test whether the cells that regrew after BHPI treatment were resistant to BHPI they were re-treated for another cycle (BHPI Retreat) and shown to retain sensitivity to BHPI killing. (n=8 biological replicates±SEM.

[2] = test system: TYS-Luc (T47DERαY537S-Luc human breast cancer cells) orthotopic tumors; test: Orthotopic TYS-Luc mouse xenograft, bioluminescent imaging (BLI) of tumor flux; assay type: in vivo
Protocol: In a treatment and vehicle-controlled mouse tumor study, human breast cancer cells were engineered to contain both the lethal ERαY537S mutation found in metastatic breast cancer, and the gene for firefly luciferase—when the appropriate chemical is added, the firefly luciferase breaks down the chemical and light is produced. Using a sensitive detector called an imaging system, this allows us to image the tumors inside live mice. This is called bioluminescent imaging, or BLI. Large tumors were allowed to form. Then (−)-105 was injected daily under the skin for three weeks. Using the imaging system, the effect of (−)-105 on the tumors was monitored. At the same time the effect of the vehicle in which (−)-105 was dissolved on tumors was also monitored.
A study was performed to determine what happens after stopping treatment with (−)-105 (Table 2). The study was designed to show whether the micro-tumors would remain dormant, or whether they would regrow. At the end of the three-week treatment, there is residual material that gives off a tiny amount of light which are termed “micro-tumors”. Based on sensitivity of the imaging system, it is believed these micro-tumors contain anywhere from 0-˜1,000 cancer cells; the micro-tumors will not be visible to the naked eye. Seeing them requires the powerful imaging system, or a microscope. To test whether these cells are either dead, or no longer dividing and are dormant, the cells two and 4 weeks after they stopped receiving any treatment were imaged. This study tested whether growing cancer cells have been eradicated; this study continues.
In a 3-week study, large breast tumors were present at start of treatment and regressed as shown in the image of FIG. 17. The study was performed using Orthotopic TYS-Luc (injected cells: T47DERα Y537-Luc human breast cancer cells), e.g., the most lethal ERα mutation in human in metastatic breast cancer. Tumors were grown in NSG mice. Further details are provided in the Examples.
Experimental Details of the Xenografts: TYS-Luc cells (5,000,000 cells in Matrigel) were injected into the upper mammary fat pad of ovariectomized female NSG (SCID) mice (Jackson labs). After 10 weeks, on day 0, large tumors (size range: 100-600 mm^3) were present. Mice were treated with the vehicle used to dissolve (−)-105, or (−)-105 at 40 mg/kd daily by subcutaneous injection. For bioluminescent imaging (BLI) of the tumors, the mice were anesthetized with isoflurane and Lucerfin, the luciferase substrate, was injected into the mice. Flux, the total member of light photons hitting the detector in one second was measured using an IVIS ([…]). Shown is the flux (in millions of units per second) for the entire area containing each tumor, or an equivalent area when the tumor is tiny or undetectable and the percent change in tumor size at each time a measurement was taken (day 0, day 3, week 1, week 2, week 3). Then treatment was stopped, and another measurement was taken two weeks letter. Note that tumors were also measured with calipers. […] After three days all the (−)-105 tumors has declined to undetectable using calipers.

[3] = test system: sp-XBP1 mRNA in T47D-luciferase cells; test: Induction of spliced XBP-1 mRNA (qRT-PCR); assay type: cell-based, human; details: 100 nM
Protocol: ERα positive T47D-luciferase, human breast cancer cells, were maintained for the indicated times in vehicle (Ctl, Control), 100 nM BHPI or 100 nM (−)-105. At the indicated times RNA was isolated and levels of sp-XBP1 mRNA quantitated by qRT-PCR. (n=3±SEM). […] Increased sp-XBP1 mRNA is a widely used marker for unfolded protein response (UPR) activation.

[4] = test system: (BHPI-sensitive) parental T47D cells; test: Growth of parental T47D cells (MTS); assay type: cell-based, human; details: 100 nM and 1 μM, 4 days
Protocol: ERα containing T47D human breast cancer cells able to survive in 1 μM BHPI were selected by clonal outgrowth. The effect of 100 nM and 1 μM BHPI and (−)-105 on growth of the (BHPI-sensitive) parental T47D cells and partially BHPI-resistant T47D clones 1, 3, 8, and 11 was evaluated. 4,000 cells/well were plated. Cell number was determined by MTS assay from a standard curve of absorbance versus cell number. […] Thus, in 4 days (−)-105 killed some, but not all, of the resistant cells.

[5] = Pharmacokinetics, brain penetration and tolerability in mice; assay type: in vivo, mouse
Protocol: FIG. 40. SERK-F6 is tolerated, reaches biologically relevant concentrations, and crosses the blood-brain barrier in vivo. a, Serum concentrations of SERK-F6 after indicated doses, route of administration, and time. Concentration was determined via LC/MS/MS analysis. […] AUC: Area Under the Curve, Cmax: maximum concentration, t1/2: half-life. c,d, Mice (CD-1) were treated with the indicated doses and times, then sacrificed and their serum and brains collected. Concentrations were determined via LC/MS/MS analysis. […] Treatment arms: vehicle daily (n=3), vehicle weekly (n=3), fulv. weekly (5 mg/mouse, s.c., n=6), SERK-F6 daily (10 or 40 mg/kg p.o.). Vehicle arms were combined. g, Mass of tumors harvested from mice. h, observed murine weight during this MCF-7 study (n=6). i,j, Tumor measurements for MCF-7 bilateral orthotopic model (n=4-5).
The pharmacokinetics of SERK-F6 was measured in mice (FIG. 40A-B).

[6] = after 3 days of treatment, all 5 mice

Question: What does the source list for O=C1Nc2c(C(F)(F)F)cccc2C1(c1ccc(O)cc1)c1ccc(OC(F)(F)F)cc1 (single isomer, unassigned; (-)) [(−)-105, 3-(4-hydroxyphenyl)-3-(4-(trifluoromethoxy)phenyl)-7-(trifluoromethyl)indolin-2-one]?
Answer: effect on MCF-7Y537S cells in long-term experiments [1]: eradicates; regrowth of cells after treatment (TYS-Luc cells): no regrowth; micro-tumor regrowth after stopping treatment ([2]; 4 weeks after stopping treatment): NO “MICRO-TUMOR” REGROWTH; tumor shrinkage (regression) by BLI, 4 of the 5 tumors ([2]; after 3 days of treatment, 4 of 5 tumors): more than 99.9%; tumor shrinkage (regression) by BLI, all five tumors [2, 6]: more than 99%; tumor size using calipers [2, 6]: undetectable; tumor shrinkage by BLI, 3 of the remaining 4 mice ([2]; after three weeks): more than 99.9%; tumor change in one mouse (complete regression) ([2]; after three weeks, one mouse): −100%; Day 0 Flux ([2]; per mouse, day 0 (start of treatment, baseline)): 2,130 millions of photons/sec and 277 millions of photons/sec and 72.6 millions of photons/sec and 1,880 millions of photons/sec and 1,650 millions of photons/sec; Day 14 % Change in Tumor Flux ([2]; per mouse, day 14 vs day 0): 99.66%; health of the treated mice / toxicity ([2]; three-week treatment): No toxicity; micro-tumor regrowth after stopping treatment ([2]; two weeks after treatment was stopped): the microtumors had not started growing again; tumor size using calipers ([2]; within seven days, all 5 tumors): undetectable; UPR activation, induction of sp-XBP1 mRNA [3]: much stronger UPR hyper-activator and inducer of sp-XBP1 than BHPI; growth / killing of parental T47D cells [4]: killed all the T47D cells; blood-brain barrier penetration [5]: blood-brain barrier penetrant; tolerability in vivo [5]: well-tolerated
